The values that follow come from patent US11078170B2 (Assembly Biosciences, Inc., priority 2017, dated 2021).

pEC50: −log10 of the molar value.

Broadly, the pEC50 is −log10 of the EC50, conventionally taken in molar units.

This assay relates to HBV viral production from HepAD38 cells. Description: Activity of test compounds on viral production from HepAD38 cells (viral load by qPCR of HBV core sequence in supernatant). It counts as cell-based. Particulars: Hepatitis B virus, 120 h, 5 days incubation, HBV DNA in supernatant by qPCR, top concentration 10 μM, read-out: Viral Load EC50 Activity range. Summed up: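 EC50 and CC50 come from four-parameter fits of supernatant viral load and CellTiter-Glo viability, respectively. Viral load was measured by core-region TaqMan qPCR against HBV DNA standards and compared with DMSO controls. Tet-free HepAD38 cells (50,000/well, 2% FBS) were exposed to compound, highest 10 μM, for 5 days at 37° C.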
In general terms: Real-time PCR tracks product formation cycle by cycle.
Regarding `CN1[C@H](C(=O)Nc2ccc(F)c(Cl)c2)C[C@H](c2cc(-c3ccccn3)cs2)NS1(=O)=O` [HBV-CSU-168-ISO-II, Cis-N-(3-chloro-4-fluorophenyl)-2-methyl-5-(4-(pyridin-2-yl)thiophen-2-yl)-1,2,6-thiadiazinane-3-carboxamide 1,1-dioxide], the pEC50 is greater than 6.00.

For the compound `CN1[C@H](C(=O)Nc2ccc(F)c(Cl)c2)C[C@H](c2cc(-c3cnn(C)c3)cs2)NS1(=O)=O` [HBV-CSU-169-ISO-I, Cis-N-(3-chloro-4-fluorophenyl)-2-methyl-5-(4-(1-methyl-1H-pyrazol-4-yl)thiophen-2-yl)-1,2,6-thiadiazinane-3-carboxamide 1,1-dioxide], the pEC50 is greater than 6.00.

With `CN1[C@@H](C(=O)Nc2ccc(F)c(Cl)c2)C[C@@H](c2cc(-c3cnn(C)c3)cs2)NS1(=O)=O` [HBV-CSU-169-ISO-II, Cis-N-(3-chloro-4-fluorophenyl)-2-methyl-5-(4-(1-methyl-1H-pyrazol-4-yl)thiophen-2-yl)-1,2,6-thiadiazinane-3-carboxamide 1,1-dioxide], the pEC50 is 5.30 to 6.00.

As for `CN1[C@@H](C(=O)Nc2ccc(F)c(Cl)c2)C[C@@H](c2cc(-c3cccs3)cs2)NS1(=O)=O` [HBV-CSU-170-ISO-II], the pEC50 is greater than 6.00.

Take `CN1[C@H](C(=O)Nc2ccc(F)c(Cl)c2)C[C@H](c2cc(-c3cccs3)cs2)NS1(=O)=O` [HBV-CSU-170-ISO-I]: the negative logarithm of the EC50 (pEC50) is greater than 6.00.

As to `CN1C(C(=O)Nc2ccc(F)c(Cl)c2)CC(c2cc(-c3cccs3)cs2)NS1(=O)=O` (stereo not shown) [HBV-CSU-170], the pEC50 was greater than 6.00.

Turning to `CN1C(C(=O)Nc2ccc(F)c(Cl)c2)CC(c2cc(-c3ccc(NS(C)(=O)=O)cc3)cs2)NS1(=O)=O` (stereo not drawn) [HBV-CSU-171, Cis-N-(3-chloro-4-fluorophenyl)-2-methyl-5-(4-(4-(methylsulfonamido)phenyl)thiophen-2-yl)-1,2,6-thiadiazinane-3-carboxamide 1,1-dioxide], the pEC50 is greater than 6.00.

As to `CN1[C@H](C(=O)Nc2ccc(F)c(Cl)c2)C[C@H](c2ncc(-c3ccc(Br)c(F)c3)s2)NS1(=O)=O` [HBV-CSU-173-ISO-I, Cis-5-(5-(4-Bromo-3-fluorophenyl)thiazol-2-yl)-N-(3-chloro-4-fluorophenyl)-2-methyl-1,2,6-thiadiazinane-3-carboxamide 1,1-dioxide], the pEC50 was greater than 6.00.

Regarding `CN1[C@@H](C(=O)Nc2ccc(F)c(Cl)c2)C[C@@H](c2ncc(-c3ccc(Br)c(F)c3)s2)NS1(=O)=O` [HBV-CSU-173-ISO-II, Cis-5-(5-(4-Bromo-3-fluorophenyl)thiazol-2-yl)-N-(3-chloro-4-fluorophenyl)-2-methyl-1,2,6-thiadiazinane-3-carboxamide 1,1-dioxide], the pEC50 was less than 5.30.

As for `CN1[C@H](C(=O)Nc2ccc(F)c(Cl)c2)C[C@H](c2ncc(-c3cccnc3)s2)NS1(=O)=O` [HBV-CSU-175-ISO-I, Cis-N-(3-Chloro-4-fluorophenyl)-2-methyl-5-(5-(pyridin-3-yl)thiazol-2-yl)-1,2,6-thiadiazinane-3-carboxamide 1,1-dioxide], the pEC50 was greater than 6.00.

`CN1[C@@H](C(=O)Nc2ccc(F)c(Cl)c2)C[C@@H](c2ncc(-c3cccnc3)s2)NS1(=O)=O` [HBV-CSU-175-ISO-II, Cis-N-(3-Chloro-4-fluorophenyl)-2-methyl-5-(5-(pyridin-3-yl)thiazol-2-yl)-1,2,6-thiadiazinane-3-carboxamide 1,1-dioxide]: the pEC50 is greater than 6.00.

For the compound `CN1[C@H](C(=O)Nc2ccc(F)c(Cl)c2)C[C@H](c2ncc(-c3ccccn3)s2)NS1(=O)=O` [HBV-CSU-176-ISO-I, Cis-N-(3-chloro-4-fluorophenyl)-2-methyl-5-(5-(pyridin-2-yl)thiazol-2-yl)-1,2,6-thiadiazinane-3-carboxamide 1,1-dioxide], the pEC50 was greater than 6.00.

For `CN1[C@@H](C(=O)Nc2ccc(F)c(Cl)c2)C[C@@H](c2ncc(-c3ccccn3)s2)NS1(=O)=O` [HBV-CSU-176-ISO-II, Cis-N-(3-chloro-4-fluorophenyl)-2-methyl-5-(5-(pyridin-2-yl)thiazol-2-yl)-1,2,6-thiadiazinane-3-carboxamide 1,1-dioxide], the pEC50 was less than 5.30.

As to `CN1[C@H](C(=O)Nc2ccc(F)c(Cl)c2)C[C@H](c2ncc(-c3cnn(C)c3)s2)NS1(=O)=O` [HBV-CSU-177-ISO-I, Cis-N-(3-Chloro-4-fluorophenyl)-2-methyl-5-(5-(1-methyl-1H-pyrazol-4-yl)thiazol-2-yl)-1,2,6-thiadiazinane-3-carboxamide 1,1-dioxide], the pEC50 is greater than 6.00.

Turning to `CN1[C@H](C(=O)Nc2ccc(F)c(Cl)c2)C[C@H](c2ncc(-c3cccs3)s2)NS1(=O)=O` [HBV-CSU-178-ISO-I, Cis-N-(3-Chloro-4-fluorophenyl)-2-methyl-5-(5-(thiophen-2-yl)thiazol-2-yl)-1,2,6-thiadiazinane-3-carboxamide 1,1-dioxide], the pEC50 was greater than 6.00.

As for `CN1[C@@H](C(=O)Nc2ccc(F)c(Cl)c2)C[C@@H](c2ncc(-c3cccs3)s2)NS1(=O)=O` [HBV-CSU-178-ISO-II, Cis-N-(3-Chloro-4-fluorophenyl)-2-methyl-5-(5-(thiophen-2-yl)thiazol-2-yl)-1,2,6-thiadiazinane-3-carboxamide 1,1-dioxide], the pEC50 is 5.30 to 6.00.

`CN1[C@H](C(=O)Nc2ccc(F)c(Cl)c2)C[C@H](c2ncc(-c3ccc(NS(C)(=O)=O)cc3)s2)NS1(=O)=O` [HBV-CSU-179-ISO-I, Cis-N-(3-Chloro-4-fluorophenyl)-2-methyl-5-(5-(4-(methylsulfonamido)phenyl)thiazol-2-yl)-1,2,6-thiadiazinane-3-carboxamide 1,1-dioxide]: the pEC50 is greater than 6.00.

Take `CN1[C@@H](C(=O)Nc2ccc(F)c(Cl)c2)C[C@@H](c2ncc(-c3ccc(NS(C)(=O)=O)cc3)s2)NS1(=O)=O` [HBV-CSU-179-ISO-II, Cis-N-(3-Chloro-4-fluorophenyl)-2-methyl-5-(5-(4-(methylsulfonamido)phenyl)thiazol-2-yl)-1,2,6-thiadiazinane-3-carboxamide 1,1-dioxide]: the pEC50 is 5.30 to 6.00.

Take `COc1ccc(C2CC(C(=O)Nc3ccc(F)c(Cl)c3)N(C)S(=O)(=O)N2)cc1` (stereo not drawn) [HBV-CSU-200, Cis-N-(3-Chloro-4-fluorophenyl)-5-(4-methoxyphenyl)-2-methyl-1,2,6-thiadiazinane-3-carboxamide 1,1-dioxide]: the pEC50 is greater than 6.00.

Take `CN1C(C(=O)Nc2ccc(F)c(Cl)c2)CC(c2ccc(O)cc2)NS1(=O)=O` (stereo not drawn) [HBV-CSU-201, Cis-N-(3-Chloro-4-fluorophenyl)-5-(4-hydroxyphenyl)-2-methyl-1,2,6-thiadiazinane-3-carboxamide 1,1-dioxide]: the pEC50 is greater than 6.00.

Turning to `CN1C(C(=O)Nc2ccc(F)c(Cl)c2)CC(c2ccc(Br)cc2)NS1(=O)=O` (stereo not drawn) [HBV-CSU-202, Cis-5-(4-Bromophenyl)-N-(3-chloro-4-fluorophenyl)-2-methyl-1,2,6-thiadiazinane-3-carboxamide 1,1-dioxide], the pEC50 was greater than 6.00.

As for `COc1cccc(C2CC(C(=O)Nc3ccc(F)c(Cl)c3)N(C)S(=O)(=O)N2)c1` (stereo not drawn) [HBV-CSU-204, Cis-N-(3-Chloro-4-fluorophenyl)-5-(3-methoxyphenyl)-2-methyl-1,2,6-thiadiazinane-3-carboxamide 1,1-dioxide], the pEC50 was greater than 6.00.
